According to ChEMBL document CHEMBL5360622, “Leucettinibs, a Class of DYRK/CLK Kinase Inhibitors Inspired by the Marine Sponge Natural Product Leucettamine B” (J Med Chem, 2023):
pIC50: −log10 of the molar value.

Key:
[1] = molecular target: T1, Dual specificity protein kinase CLK3 (Homo sapiens, UniProt P49761); assay type: cell-based, Sf9
Target sequence in this assay (P49761 whole entry): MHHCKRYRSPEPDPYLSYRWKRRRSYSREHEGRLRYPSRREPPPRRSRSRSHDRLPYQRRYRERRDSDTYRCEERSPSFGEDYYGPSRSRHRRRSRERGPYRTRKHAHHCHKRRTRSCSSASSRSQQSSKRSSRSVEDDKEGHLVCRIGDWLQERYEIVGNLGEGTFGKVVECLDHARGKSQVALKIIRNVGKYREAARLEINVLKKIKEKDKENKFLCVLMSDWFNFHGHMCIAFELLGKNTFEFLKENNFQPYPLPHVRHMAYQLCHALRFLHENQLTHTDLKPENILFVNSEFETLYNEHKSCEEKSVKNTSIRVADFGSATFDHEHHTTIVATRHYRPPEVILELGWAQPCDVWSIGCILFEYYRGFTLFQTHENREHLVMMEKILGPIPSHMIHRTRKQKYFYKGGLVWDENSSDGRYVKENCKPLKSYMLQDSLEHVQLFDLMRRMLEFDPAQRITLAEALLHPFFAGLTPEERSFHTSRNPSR

[2] = molecular target: Dual specificity protein kinase CLK4 (Homo sapiens, UniProt Q9HAZ1)
[3] = molecular target: T2, Dual specificity tyrosine-phosphorylation-regulated kinase 2 (Homo sapiens, UniProt Q92630)
T2 sequence (Q92630 whole entry): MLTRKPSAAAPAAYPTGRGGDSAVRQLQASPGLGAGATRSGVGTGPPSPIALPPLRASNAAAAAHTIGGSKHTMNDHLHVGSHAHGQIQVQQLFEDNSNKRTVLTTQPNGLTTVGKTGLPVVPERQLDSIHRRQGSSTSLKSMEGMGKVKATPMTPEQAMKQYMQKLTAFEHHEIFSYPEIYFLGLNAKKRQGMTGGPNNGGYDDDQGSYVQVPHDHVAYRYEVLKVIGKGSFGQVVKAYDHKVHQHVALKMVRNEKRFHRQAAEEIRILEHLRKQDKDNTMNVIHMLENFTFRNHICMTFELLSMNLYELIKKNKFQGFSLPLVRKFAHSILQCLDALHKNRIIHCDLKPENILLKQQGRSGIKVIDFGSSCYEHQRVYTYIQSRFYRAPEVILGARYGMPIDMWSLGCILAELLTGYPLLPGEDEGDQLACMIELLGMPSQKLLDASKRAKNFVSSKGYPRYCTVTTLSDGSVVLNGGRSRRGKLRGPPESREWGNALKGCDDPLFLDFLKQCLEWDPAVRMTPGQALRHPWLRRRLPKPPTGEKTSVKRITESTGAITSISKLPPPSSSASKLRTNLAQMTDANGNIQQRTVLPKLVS

[4] = molecular target: T1, Dual specificity protein kinase CLK3; conditions: dose 10.0 µM
Target sequence in this assay (P49761 whole entry, looked up): as the sequence (P49761 whole entry) above

[5] = molecular target: AP2-associated protein kinase 1 (Homo sapiens) (UniProt Q2M2I8); conditions: dose 10.0 µM
Chain of AP2-associated protein kinase 1 (Homo sapiens) (Q2M2I8 whole entry, looked up): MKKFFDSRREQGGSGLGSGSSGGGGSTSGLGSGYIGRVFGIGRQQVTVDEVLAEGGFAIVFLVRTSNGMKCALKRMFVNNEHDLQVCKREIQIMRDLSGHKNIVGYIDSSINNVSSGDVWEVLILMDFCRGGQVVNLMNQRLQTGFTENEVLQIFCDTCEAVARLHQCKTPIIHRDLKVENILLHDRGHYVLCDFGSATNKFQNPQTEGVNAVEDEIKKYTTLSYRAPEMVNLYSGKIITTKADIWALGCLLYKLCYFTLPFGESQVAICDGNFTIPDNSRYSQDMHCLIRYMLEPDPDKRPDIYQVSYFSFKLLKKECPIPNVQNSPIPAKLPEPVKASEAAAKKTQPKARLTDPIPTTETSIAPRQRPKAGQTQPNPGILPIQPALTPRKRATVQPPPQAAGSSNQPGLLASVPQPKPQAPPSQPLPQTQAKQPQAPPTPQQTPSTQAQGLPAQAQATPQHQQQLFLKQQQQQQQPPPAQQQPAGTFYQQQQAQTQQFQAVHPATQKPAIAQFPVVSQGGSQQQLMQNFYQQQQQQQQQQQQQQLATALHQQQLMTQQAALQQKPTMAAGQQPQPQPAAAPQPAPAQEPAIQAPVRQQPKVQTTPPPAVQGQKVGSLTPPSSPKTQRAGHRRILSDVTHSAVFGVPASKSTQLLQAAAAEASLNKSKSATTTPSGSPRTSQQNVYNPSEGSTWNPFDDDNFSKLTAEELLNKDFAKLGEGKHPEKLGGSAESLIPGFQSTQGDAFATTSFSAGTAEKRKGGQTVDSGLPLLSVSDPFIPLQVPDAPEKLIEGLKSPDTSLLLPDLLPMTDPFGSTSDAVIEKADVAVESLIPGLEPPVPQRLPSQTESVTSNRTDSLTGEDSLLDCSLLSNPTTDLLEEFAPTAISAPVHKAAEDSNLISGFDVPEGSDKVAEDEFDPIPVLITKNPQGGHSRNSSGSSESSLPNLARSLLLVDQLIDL

Chain of Dual specificity protein kinase CLK4 (Q9HAZ1 whole entry): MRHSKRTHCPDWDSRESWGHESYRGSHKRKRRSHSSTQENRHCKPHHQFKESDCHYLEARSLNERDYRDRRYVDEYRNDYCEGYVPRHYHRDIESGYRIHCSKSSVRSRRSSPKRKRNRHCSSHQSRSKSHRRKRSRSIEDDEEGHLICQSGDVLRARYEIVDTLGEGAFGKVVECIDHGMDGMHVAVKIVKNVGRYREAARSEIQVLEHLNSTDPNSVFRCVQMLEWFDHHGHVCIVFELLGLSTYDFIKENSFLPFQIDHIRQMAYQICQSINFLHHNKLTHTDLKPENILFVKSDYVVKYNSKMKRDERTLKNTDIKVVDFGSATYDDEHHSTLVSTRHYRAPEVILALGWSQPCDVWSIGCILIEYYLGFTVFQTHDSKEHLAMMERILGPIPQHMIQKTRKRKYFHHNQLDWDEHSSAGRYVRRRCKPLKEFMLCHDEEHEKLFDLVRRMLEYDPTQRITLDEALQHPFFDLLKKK

pIC50 [1]: < 5.00
pIC50 [2]: 5.46
pIC50 [3]: < 5.00
ΔTm [4]: -0.5 °C
ΔTm [5]: 0 °C
Structure (SMILES): O=C1NC(NC23CC4CC(CC(C4)C2)C3)=N/C1=C\c1ccc2scnc2c1
